Source: patent US20090208455A1, “Method for Treating Polyglutamine Expansion Neurodegenerative Diseases” (INSERM (Institut National de la Sante et de la Recherche …, priority 2006, published 2009)
Entries after “also recorded” stand apart in the source; their conditions may differ. Peptide text beside a SMILES is read from it. * marks the point of attachment. Cbz = O=C(OCc1ccccc1)*

Assays:
[1] = system: proteasome; experiment: Proteasome inhibition by MG132 in COS-7 cells, Western blot of ATXN7; type: cell-based
Protocol: (§1) Cell culture, transfections, MG132, INF and cadmium treatments: COS-7 cells were maintained in DMEM (Invitrogen) supplemented with 5% FBS, and penicillin-streptomycin (100 UI/ml; 100 μg/ml). Cell lines were transfected with Lipofectamine-PLUS reagents (Invitrogen) as prescribed. […] Recombinant human Interferon beta (Hu-IFN-b) is obtained from human fibroblast mRNA expressed in E. Coli. Its molecular weight is approximately 20 kDa. Recombinant human Interferon beta was supplied as a solution at 1×10^6 units/ml in PBS (phosphate buffered saline) containing 0.1% BSA (bovine serum albumin) and 10% glycerol. It was purchased from Sigma-Aldrich. Recombinant human Interferon beta (2000 UI/ml) was added to the culture medium after plating and during transfection. Cadmium chloride (Cadmium chloride hemi pentahydrate, Sigma Aldrich) (from 0.25 μM to 2 μM) was added during transfection. For proteasome inhibition, 5 μM MG132 was applied for 12 h, 25 h post-transfection. Cultures of post-mitotic neurons were prepared from the cortex of embryonic day 16 Wistar rats. Cells were extracted from the embryos and cultured with 1 μM MK801. Glial cell proliferation was stopped by adding 1 μM cytosine arabinoside after 3 h. Primary cultures of cortical neurons were transfected 96 h after plating using Lipofectamine 2000 reagent (Invitrogen) according to the manufacturer's instructions.
Western blot and filter retardation assay: Cells were harvested in PBS, pelleted and lysed 30 min on ice in lysis buffer containing 50 mM Tris pH 8.8, 100 mM NaCl, 5 mM MgCl2, 0.5% NP40, 1 mM EDTA and 250 UI/ml benzonase (Merck) supplemented with a cocktail of protease inhibitors (Complete and Pefabloc, Roche). Total extracts were centrifuged at 13000 rpm for 10 min at 4° C. to separate soluble proteins from aggregates and membranes. Supernatants (30 μg protein) were analyzed by Western blot. Pellets were washed with PBS and further incubated 30 min on ice in a pellet buffer containing 20 mM Tris pH 8.0, 15 mM MgCl2 and 250 UI/ml benzonase. Protein concentrations (supernatant and pellet) were determined by Bio-Rad assay. […]

[2] = system: mutant ATXN7 aggregates; experiment: Filter retardation assay of SDS-insoluble material in COS-7 cells; type: cell-based; conditions: 0.25 to 2 μM cadmium, filter assay on pellet fraction
Protocol: as §1, with “For proteasome inhibition, 5 μM MG132 was applied for 12 h, 25 h post-transfection. Cultures of post-mitotic neurons were prepared from the cortex of embryonic day 16 Wistar rats. Cells were extracted from the embryos and cultured with 1 μM MK801. Glial cell proliferation was stopped by adding 1 μM cytosine arabinoside after 3 h. Primary cultures of cortical neurons were transfected 96 h after plating using Lipofectamine 2000 reagent (Invitrogen) according to the manufacturer's instructions.” left out
Western blot and filter retardation assay: Cells were harvested in PBS, pelleted and lysed 30 min on ice in lysis buffer containing 50 mM Tris pH 8.8, 100 mM NaCl, 5 mM MgCl2, 0.5% NP40, 1 mM EDTA and 250 UI/ml benzonase (Merck) supplemented with a cocktail of protease inhibitors (Complete and Pefabloc, Roche). […] Supernatants (30 μg protein) were analyzed by Western blot. […] Protein concentrations (supernatant and pellet) were determined by Bio-Rad assay. […]

[3] = system: endogenous PML bodies; experiment: Immunofluorescence of endogenous PML bodies in cadmium-treated cells expressing FL-74Q; type: cell-based; conditions: 2 μM cadmium
Protocol: Cell culture, transfections, MG132, INF and cadmium treatments: COS-7 cells were maintained in DMEM (Invitrogen) supplemented with 5% FBS, and penicillin-streptomycin (100 UI/ml; 100 μg/ml). Cell lines were transfected with Lipofectamine-PLUS reagents (Invitrogen) as prescribed. Unless otherwise specified, cells were harvested or analyzed by immunofluorescence 40-45 h post-transfection. β-INF. Recombinant human Interferon beta (Hu-IFN-b) is obtained from human fibroblast mRNA expressed in E. Coli. Its molecular weight is approximately 20 kDa. Recombinant human Interferon beta was supplied as a solution at 1×10^6 units/ml in PBS (phosphate buffered saline) containing 0.1% BSA (bovine serum albumin) and 10% glycerol. It was purchased from Sigma-Aldrich. Recombinant human Interferon beta (2000 UI/ml) was added to the culture medium after plating and during transfection. Cadmium chloride (Cadmium chloride hemi pentahydrate, Sigma Aldrich) (from 0.25 μM to 2 μM) was added during transfection. For proteasome inhibition, 5 μM MG132 was applied for 12 h, 25 h post-transfection. Cultures of post-mitotic neurons were prepared from the cortex of embryonic day 16 Wistar rats. Cells were extracted from the embryos and cultured with 1 μM MK801. Glial cell proliferation was stopped by adding 1 μM cytosine arabinoside after 3 h. […]

[4] = system: wild type mice (C57 black6); experiment: Toxicity of beta-IFN injection protocol in wild type mice; type: in vivo; conditions: 10.000 Units per mouse, 3 injections per week intraperitoneally, 12 weeks, versus saline
Text: (§2) Protocol: 3 injections (intraperitoneally) per week, each of 10.000 Units murine beta IFN per mouse (from Sigma). Starting at 5 weeks of age, and during 10 weeks or more, until the animals die.
The inventors first tested the toxicity of such a treatment, as no publication described a treatment of young animals with IFN. In adult mice affected by multiple sclerosis and receiving injections of beta-IFN, the doses were 10.000 Units per mouse, over 14 weeks. The inventors chose to use the same doses and tested toxicity of the protocol in wild type mice of the same strain (C57 black6) than the KI mice, during 12 weeks. […] The inventors concluded that the dose used was not toxic, and decided to use 10.000 Units, 3 times a week, in the SCAT mouse model.

[5] = system: SCA7 KI mice; experiment: Beam walking test in SCA7 knock-in mice; type: in vivo; conditions: 10.000 Units i.p. 3 times a week from 5 weeks of age; effect from 12 weeks of age, p inf to 0.005
Protocol: This test was performed each week, with 3 sessions per animal (maximal time 1 min.). The number of errors made on the wooden beam by each mouse, and the traveled total distance were noted. A mean of the 3 assays was calculated.
(§3) The inventors use the Spinocerebellar ataxia 7 (SCA7) knock-in mouse model developed in Huda Zhoghbi's lab (Yoo et al, 2003). This mouse model SCAT 266Q/5Q reproduces features of an infantile SCAT disease. The phenotype begins at 5 weeks of age with weight loss and then visual impairment. At about 8 weeks their locomotor functions are affected, and by 13-14 weeks of age the ataxic phenotype is severe with tremor, gait ataxia, muscular mass loss, kyphosis. The mice die between 14 and 19 weeks of age. In this severely affected mice model the inventors undertook to test a treatment with murine beta-IFN (Sigma).
Protocol: 3 injections (intraperitoneally) per week, each of 10.000 Units murine beta IFN per mouse (from Sigma). Starting at 5 weeks of age, and during 10 weeks or more, until the animals die. […]
The mouse is placed at the end of the beam, at segment number 1 and the task is to walk towards the box placed at the other end. […] During the task, the inventors carefully monitored the numbers of errors done with the paws on the beam (front or rear paws). The ratio number of errors/distance traveled (EID) is calculated for each animal.

[6] = system: SCA7 KI mice; experiment: Locotronic test in SCA7 knock-in mice; type: in vivo; conditions: treated KI versus untreated KI
Protocol: Mice have been subjected to crossing the Locotronic apparatus, each week, 3 sessions with 15 min pause between sessions. FIG. 7A indicates the time in seconds for crossing the Locotronic and FIG. 7B indicates the numbers of errors (front paws, rear paws) made by the mice during the task. A mean value was calculated for the 3 sessions, for each group of animals.
as §3, with “(Sigma). […]” for “(Sigma).”
The Locotronic is designed to evaluated fine motor coordination in mice crossing the apparatus. […] On the side of the apparatus there are infra red sensors which measure errors made with front paws and rear paws (differentially scored). […] All the errors detected by the sensors are saved in a file as well as the time needed for crossing. […]

[7] = system: SCA7 KI mice; experiment: Life time of SCA7 knock-in mice; type: in vivo
Text: as §3, §2

[8] = 5 μM MG132, COS-7 cells, Western blot

CC(C)C[C@@H](C=O)NC(=O)[C@H](CC(C)C)NC(=O)[C@H](CC(C)C)NC(=O)OCc1ccccc1 [MG132] (Cbz-Leu-Leu-Leu-aldehyde)
amount of mutant ATXN7 FL-74Q coexpressed with PML IV [1, 8]: significantly increases; also recorded: increased
amount of mutant ATXN7 FL-74Q expressed alone (absence of PML IV) [1, 8]: significantly increases; also recorded: increased
PML-dependent degradation of ATXN7 induced by β-INF ([1]; MG132 with β-INF treatment, COS-7 cells): inhibited

O.O.O.O.O.[Cd+2].[Cd+2].[Cl-].[Cl-].[Cl-].[Cl-] [cadmium, Cadmium chloride hemi pentahydrate]
aggregation of mutant ATXN7 [2]: dose-dependent
endogenous PML bodies [3]: totally disrupted

beta-IFN: murine beta-IFN (Sigma) injected intraperitoneally in mice
adverse effects [4]: did not observe adverse effects
locomotor coordination (ratio number of errors/traveled distance) [5]: improves the locomotor coordination
time for crossing the Locotronic ([6]; 10.000 Units i.p. 3 times a week from 5 weeks of age): slower than the beta-interferon treated KI
number of errors in the Locotronic ([6]; 10.000 Units i.p. 3 times a week, at 14 weeks of age): tendency for the treated KI to make less errors
mean life time ([7]; 10.000 Units i.p. 3 times a week from 5 weeks of age, untreated SCA7 KI 15.1 weeks): 16.25 weeks
extension of the life time ([7]; treated versus untreated SCA7 KI mice): 7.5%
